Measured values from patent US20140120060A1, “TREATMENT OF RHEUMATOID ARTHRITIS AND ASTHMA USING PI3 KINASE INHIBITORS” (INFINITY PHARMACEUTICALS, INC., priority 2012, published 2014).
≈ marks a conversion by molar mass, not a printed value. Where “and” joins values, the source holds several entries; their conditions need not be identical. Equal values may be shown once. Entries after “also recorded” stand apart in the source; their conditions may differ.

Experiments:
Human B-cell = Human B-cell proliferation; type: cell-based
[1] = Pharmacokinetics in BALB/c mice; type: in vivo, mouse
neutrophil migration = assay: Neutrophil migration into rat air pouches stimulated with IL-8; type: in vivo
Description: In one embodiment, provided herein is a method for screening for anti-inflammatory or anti-asthma compound in an animal (e.g., rat) pouch assay. In one embodiment, provided herein is a method for screening for anti-inflammatory or anti-asthma compound comprising (a) creating a pouch at the back of an animal (e.g., rat) and introducing a stimuli into the pouch; (b) administrating a compound to the animal; (c) measuring the influx of leukocyte (e.g., neutrophil and/or eosinophil) into the pouch; and (d) comparing the influx of leukocyte to that of a control vehicle; wherein a reduction in the influx of leukocyte indicates the compound is an anti-inflammatory or anti-asthma compound.
The ability of PI3K-δ,γ inhibitors to block leukocyte (e.g., neutrophil) migration was examined in a rat air pouch model. Air pouches were created by subcutaneous air injections into the back of the rats on Days 0 and 3. […] Animals dosed with vehicle only, with or without IL-8 stimulation, served as study controls.

[2] = Clinical study in healthy adult subjects: safety
[3] = Embryo/fetal developmental toxicity study in rats; settings: female, rat, in vivo; pregnant rats, last day of dosing, 35 mg/kg/day; read-out: mean AUC0-24 hr at the NOAEL
hERG channel current = hERG channel current (Homo sapiens, UniProt Q12809); assay: In vitro hERG assay; type: cell-based
Chain of hERG channel current (Q12809 whole entry): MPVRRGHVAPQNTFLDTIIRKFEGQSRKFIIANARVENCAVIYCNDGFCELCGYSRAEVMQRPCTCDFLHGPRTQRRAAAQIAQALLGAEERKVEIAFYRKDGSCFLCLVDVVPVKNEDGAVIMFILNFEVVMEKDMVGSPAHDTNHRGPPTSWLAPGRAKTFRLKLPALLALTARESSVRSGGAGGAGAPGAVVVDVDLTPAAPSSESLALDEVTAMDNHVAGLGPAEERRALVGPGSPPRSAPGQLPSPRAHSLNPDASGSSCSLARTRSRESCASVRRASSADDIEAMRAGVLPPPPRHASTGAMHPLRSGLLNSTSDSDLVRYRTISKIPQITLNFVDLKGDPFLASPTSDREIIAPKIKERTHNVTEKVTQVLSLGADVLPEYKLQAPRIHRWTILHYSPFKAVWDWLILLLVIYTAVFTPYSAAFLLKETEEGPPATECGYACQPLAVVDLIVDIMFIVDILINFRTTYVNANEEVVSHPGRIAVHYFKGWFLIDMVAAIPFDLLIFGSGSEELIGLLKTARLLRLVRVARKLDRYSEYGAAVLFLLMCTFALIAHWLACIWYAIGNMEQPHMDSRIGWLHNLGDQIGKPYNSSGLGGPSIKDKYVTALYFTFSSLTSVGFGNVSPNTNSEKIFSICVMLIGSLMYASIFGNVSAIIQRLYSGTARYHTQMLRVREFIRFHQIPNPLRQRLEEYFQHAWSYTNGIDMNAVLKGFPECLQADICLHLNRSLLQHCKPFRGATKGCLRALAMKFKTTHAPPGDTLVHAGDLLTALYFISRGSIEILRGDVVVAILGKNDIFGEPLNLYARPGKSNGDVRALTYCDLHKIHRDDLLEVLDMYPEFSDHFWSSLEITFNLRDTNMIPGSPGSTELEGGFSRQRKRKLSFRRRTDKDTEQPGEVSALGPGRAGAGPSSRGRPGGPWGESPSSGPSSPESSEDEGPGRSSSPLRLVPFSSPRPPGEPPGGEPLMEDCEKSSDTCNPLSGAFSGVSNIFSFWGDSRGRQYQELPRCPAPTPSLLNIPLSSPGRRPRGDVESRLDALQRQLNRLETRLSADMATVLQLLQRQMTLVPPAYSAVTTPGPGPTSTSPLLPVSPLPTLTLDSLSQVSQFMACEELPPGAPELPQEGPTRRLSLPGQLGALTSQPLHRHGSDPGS

Structure (SMILES): C[C@H](Nc1ncnc2[nH]cnc12)c1cc2cccc(Cl)c2c(=O)n1-c1ccccc1 [Compound 292]
- EC50 (Human B-cell): 0.5 nM
- Foral ([1]; BALB/c mice, PO 10 mg/kg suspension, calculated using AUC0-last): 7% and 7^i %
- half-life ([1]; BALB/c, mouse, in vivo, iv, 10 mg/kg): < 120 min
- neutrophil influx into IL-8 stimulated air pouches (neutrophil migration; 1 mg/kg PO): only slightly
- neutrophil influx into IL-8 stimulated air pouches (neutrophil migration; 10 and 25 mg/kg PO): inhibits; also recorded: significantly blocked
- deaths and serious adverse events (SAEs) ([2]; all doses evaluated): no deaths and no serious adverse events
- safety laboratory or electrocardiogram (ECG) abnormalities ([2]; any portion of the study): No clinically significant safety laboratory or electrocardiogram (ECG) abnormalities
- QTcF at any assessment ([2]; serial ECGs): ≤ 500 ms
- largest change from baseline in QTcF ([2]; serial ECGs): 37 ms
- tolerability ([2]; single doses up to 30 mg and up to 10 mg total daily dose for 14 days): well tolerated
- AUC(0-t) [3]: 62200 ng·h/mL
- Hill coefficient (hERG) (hERG channel current): 1.3
- IC50 on hERG potassium current (hERG channel current): 20800 ng/mL (≈ 49.9 µM)
